The text below walks through data of ChEMBL document CHEMBL1137129, “Synthesis and structure-activity relationships of novel IKK-beta inhibitors. Part 2: Improvement of in vitro activity” (Bioorg Med Chem Lett, 2004).

The subject of experiment [1] is A549. Put plainly: TNF-alpha-induced RANTES production in A549 cells using ELISA assay. The class given is functional, cell-based. To be noted: Homo sapiens. For orientation: In an ELISA, binding on a coated surface is turned into a signal by an enzyme label.
Experiment [2] concerns the target T1, Inhibitor of nuclear factor kappa-B kinase subunit beta (Homo sapiens, UniProt O14920).
T1 sequence (O14920 whole entry): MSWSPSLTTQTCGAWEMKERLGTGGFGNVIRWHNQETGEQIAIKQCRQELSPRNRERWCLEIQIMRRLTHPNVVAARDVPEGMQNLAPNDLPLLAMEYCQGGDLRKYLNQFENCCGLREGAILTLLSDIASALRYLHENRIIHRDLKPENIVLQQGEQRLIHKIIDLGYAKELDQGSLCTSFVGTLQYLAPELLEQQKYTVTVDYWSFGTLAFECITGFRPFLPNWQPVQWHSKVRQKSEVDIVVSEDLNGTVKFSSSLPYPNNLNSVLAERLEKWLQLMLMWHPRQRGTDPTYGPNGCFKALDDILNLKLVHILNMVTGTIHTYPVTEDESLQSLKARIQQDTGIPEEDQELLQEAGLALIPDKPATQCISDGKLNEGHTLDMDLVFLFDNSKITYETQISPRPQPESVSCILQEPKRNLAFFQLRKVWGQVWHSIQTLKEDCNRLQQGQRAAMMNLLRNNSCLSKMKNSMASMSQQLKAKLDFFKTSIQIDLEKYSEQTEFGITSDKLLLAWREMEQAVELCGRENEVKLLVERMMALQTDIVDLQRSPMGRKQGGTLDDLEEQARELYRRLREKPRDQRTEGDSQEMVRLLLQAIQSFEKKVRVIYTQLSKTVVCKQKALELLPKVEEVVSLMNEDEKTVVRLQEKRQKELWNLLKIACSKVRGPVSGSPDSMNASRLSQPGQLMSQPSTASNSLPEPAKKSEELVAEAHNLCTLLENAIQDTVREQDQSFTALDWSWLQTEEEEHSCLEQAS
Briefly: Inhibitory activity against recombinant human I-kappa-B-kinase beta.

For experiment [3], the target named is T2, Inhibitor of nuclear factor kappa-B kinase subunit alpha (Homo sapiens, UniProt O15111).
T2 sequence (O15111 whole entry): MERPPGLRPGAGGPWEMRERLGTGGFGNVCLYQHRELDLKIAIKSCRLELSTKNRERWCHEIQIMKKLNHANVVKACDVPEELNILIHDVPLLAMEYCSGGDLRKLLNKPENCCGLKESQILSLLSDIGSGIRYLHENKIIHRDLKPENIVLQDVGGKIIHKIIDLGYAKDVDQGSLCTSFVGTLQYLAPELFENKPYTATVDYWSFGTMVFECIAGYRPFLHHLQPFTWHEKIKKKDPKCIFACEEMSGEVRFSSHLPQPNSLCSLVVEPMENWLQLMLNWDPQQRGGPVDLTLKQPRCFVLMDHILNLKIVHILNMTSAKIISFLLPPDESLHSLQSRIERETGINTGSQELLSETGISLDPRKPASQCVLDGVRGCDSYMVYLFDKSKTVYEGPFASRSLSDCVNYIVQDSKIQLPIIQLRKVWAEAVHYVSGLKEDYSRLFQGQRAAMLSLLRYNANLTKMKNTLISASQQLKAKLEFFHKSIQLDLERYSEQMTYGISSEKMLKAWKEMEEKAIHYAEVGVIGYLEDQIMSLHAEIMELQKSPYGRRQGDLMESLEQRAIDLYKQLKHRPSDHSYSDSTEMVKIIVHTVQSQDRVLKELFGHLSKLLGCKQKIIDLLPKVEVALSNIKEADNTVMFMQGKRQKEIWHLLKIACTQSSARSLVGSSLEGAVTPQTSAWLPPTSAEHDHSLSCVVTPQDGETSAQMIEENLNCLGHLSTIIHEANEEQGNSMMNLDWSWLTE
Put plainly: Inhibition of I-kappa-B-kinase alpha.

The test system of experiment [4] is PBMC. Briefly: Tested for LPS induced TNFalpha production in human PBMC cells. The format is functional, cell-based.
Experiment [5] is described as follows: Inhibition of Mitogen activated protein kinase kinase 4.
Experiment [6] can be described thus: Tested for anti-CD3/anti-CD28-induced IL-2 production in Jurkat T-cell. The format is functional, cell-based. As to conditions: Homo sapiens.

Broadly, the IC50 is the concentration that inhibits the measured activity by half.

In the case of `CC(=O)Nc1nc(-c2ccccc2O)cc(C2CCCNC2)c1C#N` (stereo not given), the IC50 stood at 1500 nM in experiment [1] and 330 nM in experiment [2].

As to `CC(N)c1cc(-c2ccccc2O)nc(N)c1C#N` (stereo not given), the IC50 in experiment [1] amounted to 4000 nM; in experiment [2], 150 nM.

Regarding `COc1ccc(CC(N)c2cc(-c3ccccc3O)nc(N)c2C#N)cc1` (stereo not given), the figures for the IC50 in experiment [1] and in experiment [2] were 5000 nM and 80 nM, respectively.

Turning to `N#Cc1c(C(N)CCc2ccccc2)cc(-c2ccccc2O)nc1N` (stereo not given), the IC50 amounted to 15000 nM in experiment [1] and 730 nM in experiment [2].

For the compound `N#Cc1c(C(N)Cc2ccc(F)cc2)cc(-c2ccccc2O)nc1N` (stereo not given), the IC50 in experiment [1] worked out at 5000 nM; in experiment [2], 40 nM.

With `N#Cc1c(C2CCCNC2)cc(-c2ccccc2)nc1N` (stereo not given), the IC50 in experiment [2] was greater than 20000 nM.

`CC(C)C(N)c1cc(-c2ccccc2O)nc(N)c1C#N` (stereo not given): the IC50 in experiment [1] worked out at 5000 nM; in experiment [2], 240 nM.

On to `N#Cc1c(-c2cccnc2)cc(-c2ccccc2O)nc1N`, for which the IC50 in experiment [2] came out at 6200 nM.

For the compound `N#Cc1c(CC(N)c2ccccc2)cc(-c2ccccc2O)nc1N` (stereo not given), the IC50 in experiment [1] worked out at 2000 nM; in experiment [2], 110 nM.

As to `N#Cc1c(CCN)cc(-c2ccccc2O)nc1N`, the IC50 in experiment [1] turned out to be 800 nM; in experiment [2], 70 nM.

Take `N#Cc1c(C(N)Cc2ccccc2)cc(-c2ccccc2O)nc1N` (stereo not given): the IC50 amounted to 8000 nM in experiment [1] and 60 nM in experiment [2].

As to `CNc1nc(-c2ccccc2O)cc(C2CCCNC2)c1C#N` (stereo not given), the IC50 in experiment [1] came to 20 nM; in experiment [2] it was 6500 nM.

For the compound `CCCCC(N)c1cc(-c2ccccc2O)nc(N)c1C#N` (stereo not given), the IC50 in experiment [1] worked out at 15000 nM; in experiment [2], 480 nM.

`N#Cc1c(C2CCCNC2)cc(-c2ccccc2O)nc1N` (stereo not given): the IC50 in experiment [1] was 300 nM; in experiment [3], 450 nM; in experiment [4], 400 nM; in experiment [2] it was 25 nM; in experiment [5] it was greater than 20000 nM; in experiment [6] it was 600 nM.

As to `CC(N)Cc1cc(-c2ccccc2O)nc(N)c1C#N` (stereo not given), the IC50 in experiment [1] came out at 3000 nM; in experiment [2], 470 nM.

Take `N#Cc1c(C2CCCCN2)cc(-c2ccccc2O)nc1N` (stereo not given): the IC50 in experiment [1] is 6000 nM; in experiment [2] it was 530 nM.

For the compound `N#Cc1c(C2CCNCC2)cc(-c2ccccc2O)nc1N`, the results for the IC50 in experiment [1] and in experiment [2] were 400 nM and 300 nM, respectively.

Turning to `N#Cc1c(N)nc(-c2ccccc2O)c(F)c1C1CCCNC1` (stereo not given), the results for the IC50 in experiment [1] and in experiment [2] were 2000 nM and 230 nM, respectively.

On to `CN1CCCC(c2cc(-c3ccccc3O)nc(N)c2C#N)C1` (stereo not given), for which the IC50 in experiment [1] was 1000 nM; in experiment [2] it was 230 nM.
